Where a name gives a salt, the structure may show the parent alone.
Tests used:
[1] = Hygroscopicity experiment (crystal forms of salts and crystal form A of free base); format: physicochemical; details: for weight gain after moisture absorption / hygroscopicity: RH 80%; for hygroscopicity: result in words; for crystal form transformation (XRPD pattern): after 1 cycle of moisture absorption and desorption, 0-95% relative humidity
Text: • 2.1 Experimental objective: The hygroscopicity of different crystal forms of salts of the compound was investigated under various relative humidity conditions to provide a basis for screening and storage of the crystal forms of salts of the compound. • 2.2 Experimental scheme: The crystal forms of salts of the compound were placed in saturated water vapor at different relative humidities to reach a dynamic equilibrium between the compound and the water vapor.
3.1 Experimental objective: The hygroscopicity of crystal form A of free base of the compound was investigated under various relative humidity conditions to provide a basis for screening and storage of the crystal forms of the compound.
3.2 Experimental scheme: The crystal form A of free base of the compound was placed in saturated water vapor at different relative humidities to reach a dynamic equilibrium between the compound and the water vapor. The percentage weight gain of the compound due to moisture absorption was calculated after the equilibrium.

[2] = Solid stability experiment of crystal forms of salts (7 and 14 days); format: physicochemical
Experimental: • 3.1 Experimental objective: To investigate the physical and chemical stability for different crystal forms of salts under the conditions of a high temperature of 60°C (GW), a high humidity of RH = 92.5% (GS), and both a high temperature of 50°C and a high humidity of RH = 75% (JS) and provide a basis for the screening of the crystal forms of salts and the storage of the crystal forms of salts of the compound. • 3.2 Experimental scheme: Different crystal forms of salts (crystal form A of hydrochloride, crystal form A of sulphate, crystal form A of citrate, crystal form A of oxalate, crystal form A of maleate and crystal form A of salicylate) were accurately weighed, and the stability of the crystal forms was investigated for 7 and 14 days under the three conditions of 60°C (GW), 92.5% RH (room temperature, GS), and 50°C/75% RH (JS). […] Therefore, they can well meet the requirements of subsequent drug development. […] Therefore, they both satisfy the requirements for subsequent drug storage.

[3] = Solubility experiments in different media, crystal forms of salts; format: physicochemical; set-up: thermodynamic solubility FaSSIF / thermodynamic solubility FaSSGF / thermodynamic solubility FeSSIF: unit not given here; details: about 2 mg suspended for 24 hours, 37°C, HPLC, external standard method; for thermodynamic solubility FaSSGF: FaSSGF (artificial simulated gastric fluid); for thermodynamic solubility FaSSIF: FaSSIF (fasted-state artificial simulated intestinal fluid); for thermodynamic solubility FeSSIF: FeSSIF (fed-state artificial simulated intestinal fluid)
Text: 4.1 Experimental objective: The solubility of the crystal form A of phosphate, crystal form A of hydrochloride, crystal form A of sulphate, crystal form A of citrate, crystal form A of oxalate, crystal form A of maleate and crystal form A of salicylate in media such as artificial simulated gastric fluid (FaSSGF), fasted-state artificial simulated intestinal fluid (FaSSIF), and fed-state artificial simulated intestinal fluid (FeSSIF) was compared to provide a basis for the evaluation of the potential of the crystal forms of salts being manufactured as a drug. […]

[4] = tested on: Ba/F3 EGFR Del19/C797S; test: Cell proliferation inhibition experiment (Cell Titer-Glo); format: cell-based; details: Mus musculus, 72 hours, read-out: Ba/F3 EGFR Dell9/C797S IC50
Experimental: Experimental objective: The objective of this test example is to test the inhibitory activity of compounds on the proliferation of different EGFR C797S drug-resistant mutant cell lines Ba/F3 EGFR Del19/T790M/C797S, Ba/F3 EGFR L858R/T790M/C797S, and Ba/F3 EGFR Del19/C797S. Experimental instruments: Centrifuge (Eppendorf 5810R); Microplate reader (BioTek Synergy H1) Pipette (Eppendorf or Rainin); Carbon dioxide incubator (Thermo 311) Cell counter (Life Countess II) Experimental reagents and consumables: • Ba/F3 EGFR Del19/T790M/C797S cells were purchased from KYinno Biotechnology Co., Ltd.; • Ba/F3 EGFR Del19/C797S cells were purchased from CoBioer Biosciences Co., Ltd.; • Ba/F3 EGFR L858R/T790M/C797S cells were purchased from CoBioer Biosciences Co., Ltd.; • Cell Titer-Glo was purchased from Promega, with a catalogue number of G7573; • RPMI 1640 was purchased from Gibco, with a catalogue number of 22400089; • FBS was purchased from Gibco, with a catalogue number of 10091148; • cell culture plates were purchased from Corning, with a catalogue number of 3610. Experimental methods: The inhibitory activity of the compound on the proliferation of different EGFR C797S drug-resistant mutant cell lines was detected using the Cell Titer-Glo method. The different cell lines were cultured in RPMI 1640 complete culture medium containing 10% FBS under conditions of 37°C and 5% CO2, the cells were collected by centrifugation when growing to a certain density, and adjusted to appropriate cell density after counting, the cells were spread on a white 96-well plate at 90 µL/well, and cultured in a 37°C, 5% CO2 incubator overnight, prepared compound solutions at different concentrations were added at 10 µL/well, corresponding solvent controls were set, and all wells were cultured in a 37°C, 5% CO2 incubator for 72 hours, 50 µL of CellTiter-Glo solution was added to each well, shook and mixed evenly, and incubated in the dark for 10 minutes, and a BioTek Synergy H1 microplate reader was used for reading. Experimental data processing method: The luminescence signal value was used to calculate the inhibition rate. Graphpad Prism software was used to fit the concentration and inhibition rate to a nonlinear regression curve, so as to obtain the IC50 value, as shown in the Table below for details.

| SMILES | weight gain after moisture absorption [1] [%] | hygroscopicity [1] | crystal form transformation (XRPD pattern) [1] | thermodynamic solubility FaSSGF [3] | thermodynamic solubility FaSSIF [3] | thermodynamic solubility FeSSIF [3] | IC50 [4] [µM] | also measured |
| --- | --- | --- | --- | --- | --- | --- | --- | --- |
| CC(C)c1c(F)cc(N2C[C@H](N(C)S(C)(=O)=O)[C@H]2C)c2cnc(Nc3ccnc(-c4cn(C)nc4Cl)n3)cc12 [crystal form B of hydrochloride, N-((2R,3S)-1-(3-((2-(3-chloro-1-methyl-1H-pyrazol-4-yl)pyrimidin-4-yl)amino)-6-fluoro-5-isopropylisoquinolin-8-yl)-2-methylazetidin-3-yl)-N-methylmethanesulphonamide] | 1.157 | weak hygroscopicity | no crystal form transformation occurred |  |  |  |  |  |
| CC(C)c1c(F)cc(N2C[C@H](N(C)S(C)(=O)=O)[C@H]2C)c2cnc(Nc3ccnc(-c4cn(C)nc4Cl)n3)cc12 [crystal form A of salicylate, N-((2R,3S)-1-(3-((2-(3-chloro-1-methyl-1H-pyrazol-4-yl)pyrimidin-4-yl)amino)-6-fluoro-5-isopropylisoquinolin-8-yl)-2-methylazetidin-3-yl)-N-methylmethanesulphonamide] | 0.1374 | weak hygroscopicity | no crystal form transformation occurred | 0.020 | 0.101 | 0.672 |  | stability (impurity increase) ([2]; high temperature and high humidity conditions, 7 and 14 days): relatively stable |
| CC(C)c1c(F)cc(N2C[C@H](N(C)S(C)(=O)=O)[C@H]2C)c2cnc(Nc3ccnc(-c4cn(C)nc4Cl)n3)cc12 [crystal form A of oxalate, N-((2R,3S)-1-(3-((2-(3-chloro-1-methyl-1H-pyrazol-4-yl)pyrimidin-4-yl)amino)-6-fluoro-5-isopropylisoquinolin-8-yl)-2-methylazetidin-3-yl)-N-methylmethanesulphonamide] | 1.707 | weak hygroscopicity | no crystal form transformation occurred | 0.070 | 0.035 | 1.228 |  | stability (impurity increase) ([2]; high temperature, high humidity, and both high temperature and high humidity conditions, 7 and 14 days): relatively stable |
| Cc1nn(C)cc1-c1nccc(Nc2cc3c(C(C)C)c(F)cc(N4CC(N(C)S(C)(=O)=O)C4)c3cn2)n1 [Example 6, N-(1-(3-((2-(1,3-dimethyl-1H-pyrazol-4-yl)pyrimidin-4-yl)amino)-6-fluoro-5-isopropylisoquinolin-8-yl)azetidin-3-yl)-N-methylmethanesulphonamide] |  |  |  |  |  |  | 0.022 |  |
| CC(C)c1c(F)cc(N2C[C@H](N(C)S(C)(=O)=O)[C@H]2C)c2cnc(Nc3ccnc(-c4cn(C)nc4Cl)n3)cc12 [crystal form A of hydrochloride, N-((2R,3S)-1-(3-((2-(3-chloro-1-methyl-1H-pyrazol-4-yl)pyrimidin-4-yl)amino)-6-fluoro-5-isopropylisoquinolin-8-yl)-2-methylazetidin-3-yl)-N-methylmethanesulphonamide] |  |  |  | 0.072 | 0.214 | >1.016 |  | stability (impurity increase) ([2]; placed for a period of time under various conditions): remain stable |

Continued, in another order:

| weight gain after moisture absorption [1] [%] | hygroscopicity [1] | crystal form transformation (XRPD pattern) [1] | thermodynamic solubility FaSSGF [3] | thermodynamic solubility FaSSIF [3] | thermodynamic solubility FeSSIF [3] | IC50 [4] [µM] | SMILES | also measured |
| --- | --- | --- | --- | --- | --- | --- | --- | --- |
|  |  |  |  |  |  | 0.014 | CC(C)c1c(F)cc(N2CC(N(C)S(C)(=O)=O)C2)c2cnc(Nc3ccnc(-c4cn(C)nc4Cl)n3)cc12 [Example 3, N-(1-(3-((2-(3-chloro-1-methyl-1H-pyrazol-4-yl)pyrimidin-4-yl)amino)-6-fluoro-5-isopropylisoquinolin-8-yl)azetidin-3-yl)-N-methylmethanesulphonamide] |  |
|  |  |  |  |  |  | 0.019 | CC(C)c1c(F)cc(N2CC(NS(C)(=O)=O)C2)c2cnc(Nc3ccnc(-c4cn(C)nc4Cl)n3)cc12 [Example 13, N-(1-(3-((2-(3-chloro-1-methyl-1H-pyrazol-4-yl)pyrimidin-4-yl)amino)-6-fluoro-5-isopropylisoquinolin-8-yl)azetidin-3-yl)methanesulphonamide] |  |
